Data published in ChEMBL document CHEMBL1201862, “PubChem BioAssay data set” (2004).
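Method: 48-hour compound exposure of cells in 96-well plates, five concentrations, linear interpolation of endpoints. GI50: concentration for 50% inhibition of growth.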 Activity calls are given as the source filed them. No stated cut-off is given here; in the data, active = GI50 up to about 1.1 µM and inactive = higher. Where a SMILES comes first, the peptide text is derived from it.

Key:
Test in all cases: NCI anticancer screen, dose series, 48 h
RPMI-8226 = system: RPMI-8226
MCF7 = system: MCF7
MDA-N = system: MDA-N
OVCAR-8 = system: OVCAR-8
SK-MEL-5 = system: SK-MEL-5
MDA-MB-231 = system: MDA-MB-231
SK-OV-3 = system: SK-OV-3
K562 = system: K562
U-251 = system: U-251
SF-268 = system: SF-268
A498 = system: A498
Malme-3M = system: Malme-3M
HL-60 = system: HL-60
NCI/ADR-RES = system: NCI/ADR-RES
UO-31 = system: UO-31
HCT-15 = system: HCT-15
OVCAR-3 = system: OVCAR-3
SN12C = system: SN12C
KM12 = system: KM12
DU-145 = system: DU-145

Row | SMILES | GI50 (RPMI-8226) | GI50 (MCF7) | GI50 (MDA-N) | GI50 (OVCAR-8) | GI50 (SK-MEL-5) | GI50 (MDA-MB-231) | GI50 (SK-OV-3) | GI50 (K562) | GI50 (U-251) | GI50 (SF-268) | GI50 (A498) | GI50 (Malme-3M) | GI50 (HL-60) | GI50 (NCI/ADR-RES) | GI50 (UO-31) | GI50 (HCT-15) | GI50 (OVCAR-3) | GI50 (SN12C) | GI50 (KM12) | GI50 (DU-145)
1 | CC(=O)NC(CS)C(=O)NC(CO)C(=O)NC(CO)C(=O)NC(Cc1c[nH]c2ccccc12)C(=O)N1CCCC1C(=O)NC(CO)C(=O)NC(Cc1c[nH]c2ccccc12)C(=O)NC(Cc1c[nH]cn1)C(=O)NC(CO)C(=O)NC(Cc1c[nH]c2ccccc12)C(=O)NCC(=O)NCC(=O)NC(CC(=O)O)C(=O)NC(CCC(N)=O)C(=O)NC(CCCCN)C(=O)NC(Cc1ccccc1)C(=O)NC(CCCNC(=N)N)C(=O)NC(CCCCN)C(N)=O (stereo not given) (Ac-CSSWPSWHSWGGDQKFRK-NH2; configuration not given here) | > 25 µM (inactive) | > 25 µM (inactive) | > 25 µM (inactive) | > 25 µM (inactive) | > 25 µM (inactive) | > 25 µM (inactive) | > 25 µM (inactive) | > 25 µM (inactive) | > 25 µM (inactive) | > 25 µM (inactive) | > 25 µM (inactive) | > 25 µM (inactive) | > 25 µM (inactive) | > 25 µM (inactive) | > 25 µM (inactive) | > 25 µM | > 25 µM (inactive) | > 25 µM (inactive) | > 25 µM (inactive) | > 25 µM (inactive)
2 | O=C1c2ccccc2-c2c1c1ccccc1c(=O)n2Cc1ccccc1 | > 100 µM (inactive) | > 100 µM (inactive) | > 100 µM (inactive) | > 100 µM (inactive) | 73.6 µM (inactive) | 50.1 µM (inactive) | > 100 µM (inactive) | > 10 µM (inactive) | 93.8 µM (inactive) | 58.5 µM (inactive) | 49.1 µM (inactive) | > 100 µM (inactive) | > 100 µM (inactive) | > 100 µM (inactive) | > 100 µM (inactive) | > 100 µM | > 100 µM (inactive) | > 100 µM (inactive) | > 100 µM (inactive) | 81.5 µM (inactive)
3 | COc1ccc(C2(O)c3ccccc3C(=O)N(C)C2(O)c2ccc(OC)cc2)cc1 (stereo not given) | > 100 µM (inactive) | 54.5 µM (inactive) | 17.7 µM (inactive) | 81.7 µM (inactive) | 99.1 µM (inactive) | > 100 µM (inactive) | > 100 µM (inactive) | 55.8 µM (inactive) | 52.7 µM (inactive) | 28.7 µM (inactive) | 73.1 µM (inactive) | 45.9 µM (inactive) | 32.6 µM (inactive) | 24 µM (inactive) | 50.7 µM (inactive) | 40.4 µM | 57 µM (inactive) | > 100 µM (inactive) | 16.4 µM (inactive) | > 100 µM (inactive)
4 | O=C(O)CN(CC(=O)O)Cc1cc(C#Cc2ccc(C#Cc3ccccc3)cc2)cc(CN(CC(=O)O)CC(=O)O)n1 | 17.1 µM (inactive) | 16.5 µM (inactive) | 35.6 µM (inactive) | 11.5 µM (inactive) | 27.3 µM (inactive) | 7.11 µM (inactive) | 56 µM (inactive) | 33 µM (inactive) | 5.11 µM (inactive) | 12.2 µM (inactive) | 40.6 µM (inactive) | 31 µM (inactive) | 12.9 µM (inactive) | 12.7 µM (inactive) | 5.68 µM (inactive) | 5.98 µM | 9.02 µM (inactive) | 19.7 µM (inactive) | 16.8 µM (inactive) | 17.3 µM (inactive)
5 | Nc1ccccc1OCCCOc1ccccc1N | > 100 µM (inactive) | > 100 µM (inactive) | 51.8 µM (inactive) | > 100 µM (inactive) | 78.3 µM (inactive) | > 100 µM (inactive) | > 100 µM (inactive) | > 100 µM (inactive) | > 100 µM (inactive) | > 100 µM (inactive) | > 100 µM (inactive) | > 100 µM (inactive) | > 100 µM (inactive) | > 100 µM (inactive) | > 100 µM (inactive) | > 100 µM | > 100 µM (inactive) | > 100 µM (inactive) | > 100 µM (inactive) | > 100 µM (inactive)
6 | COc1cc(/C=C\c2ccc(SC)cc2)cc(OC)c1OC | 0.0331 µM (active) | 0.201 µM (active) | < 0.01 µM (active) | 0.0231 µM (active) | < 0.0152 µM (active) | 0.0698 µM (active) | 0.0141 µM (active) | < 0.01 µM (active) | 0.0845 µM (active) | 0.0406 µM (active) | 0.883 µM (active) | 0.381 µM (active) | < 0.0123 µM (active) | 0.0395 µM (active) | 0.104 µM (active) | 0.0329 µM | 0.0128 µM (active) | 0.0667 µM (active) | 0.0241 µM (active) | 0.043 µM (active)
7 | Cc1cc2nc3[nH]c4c(Cl)cc(Cl)cc4c3nc2cc1C | > 100 µM (inactive) | > 100 µM (inactive) | > 100 µM (inactive) | > 100 µM (inactive) | > 100 µM (inactive) | > 100 µM (inactive) | > 100 µM (inactive) | > 100 µM (inactive) | > 100 µM (inactive) | > 100 µM (inactive) | > 100 µM (inactive) | > 100 µM (inactive) | > 100 µM (inactive) | > 100 µM (inactive) | > 100 µM (inactive) | > 100 µM | > 100 µM (inactive) | > 100 µM (inactive) | > 100 µM (inactive) | 86.3 µM (inactive)
8 | COc1cnc2cc(C(=O)O)c3ccccc3c2c1 | 28.1 µM (inactive) | > 100 µM (inactive) | > 100 µM (inactive) | > 100 µM (inactive) | > 100 µM (inactive) | > 100 µM (inactive) | > 100 µM (inactive) | > 100 µM (inactive) | > 100 µM (inactive) | > 100 µM (inactive) | > 100 µM (inactive) | > 100 µM (inactive) | > 100 µM (inactive) | > 100 µM (inactive) | > 100 µM (inactive) | > 100 µM | > 100 µM (inactive) | > 100 µM (inactive) | > 100 µM (inactive) | > 100 µM (inactive)
9 | O=C([C@H](O)[C@@H](O)c1cccc(Cl)c1)C12CC3CC(CC(C3)C1)C2 | 0.838 µM (active) | 0.667 µM (active) | 1.93 µM (inactive) | 1.88 µM (inactive) | 4.13 µM (inactive) | 2.12 µM (inactive) | 8.71 µM (inactive) | 2.98 µM (inactive) | 1.53 µM (inactive) | 1.81 µM (inactive) | 2.31 µM (inactive) | 4.81 µM (inactive) | 0.483 µM (active) | 2.27 µM (inactive) | 1.9 µM (inactive) | 2.24 µM | 1.94 µM (inactive) | 1.61 µM (inactive) | 2.26 µM (inactive) | 2.25 µM (inactive)
10 | CS(=O)(=O)N1CC(CCl)c2ccc(NO)cc21 (stereo not given) | 4.5 µM (inactive) | 8.3 µM (inactive) | 16.9 µM (inactive) | 12.9 µM (inactive) | 12.3 µM (inactive) | 15.6 µM (inactive) | 18.7 µM (inactive) | 2.88 µM (inactive) | 11.4 µM (inactive) | 5.22 µM (inactive) | 15.2 µM (inactive) | 19.1 µM (inactive) | 1.96 µM (inactive) | 4.66 µM (inactive) | 10.3 µM (inactive) | 14.2 µM | 11.7 µM (inactive) | 15.3 µM (inactive) | 14.6 µM (inactive) | 6.89 µM (inactive)
11 | CC(C)(CCc1nc2ccccc2[nH]1)C(=O)O | > 100 µM (inactive) | > 100 µM (inactive) | > 100 µM (inactive) | > 100 µM (inactive) | > 100 µM (inactive) | > 100 µM (inactive) | > 100 µM (inactive) | > 28 µM (inactive) | > 100 µM (inactive) | > 100 µM (inactive) | > 49.2 µM (inactive) | > 100 µM (inactive) | > 100 µM (inactive) | > 100 µM (inactive) | > 100 µM (inactive) | > 100 µM | > 100 µM (inactive) | > 100 µM (inactive) | > 100 µM (inactive) | > 100 µM (inactive)
12 | CC(=O)c1c(C)cn(S(=O)(=O)NC(=O)Nc2nncs2)c1C | > 100 µM (inactive) | > 100 µM (inactive) | > 100 µM (inactive) | > 100 µM (inactive) | > 100 µM (inactive) | > 100 µM (inactive) | > 100 µM (inactive) | > 100 µM (inactive) | > 100 µM (inactive) | > 100 µM (inactive) | > 100 µM (inactive) | > 100 µM (inactive) | > 100 µM (inactive) | > 100 µM (inactive) | 68.9 µM (inactive) | > 100 µM | > 100 µM (inactive) | > 100 µM (inactive) | > 100 µM (inactive) | > 100 µM (inactive)
